Usually IC50 stands for the midpoint of a concentration-inhibition curve.

The structures appear in SMILES notation. Where a SMILES comes first, the peptide text is derived from it. [ ]: non-standard residue; d: D form. The star is where a group is joined. Sta = CC(C)C[C@H](N)[C@@H](O)CC(=O)O; Isovaleryl = CC(C)CC(=O)*

The text below walks through data of article PMC10307063, “Bioprospection of Selected Plant Secondary Metabolites as Modulators of the Proteolytic Activity of Plasmodium falciparum Plasmepsin V” (BioMed Research International, 2023).

Assay [1] addresses T1, Plasmodium falciparum plasmepsin V (PfPMV) (Plasmodium falciparum, UniProt Q8I6Z5).
T1 construct: gene PMV; Trx-PfPMVp37
Nature of the assay: casein proteolysis assay with recombinant enzyme (A280), Lineweaver-Burk kinetics. Format: biochemical.

The target in assay [2] is T1, Plasmodium falciparum plasmepsin V (PfPMV). Put plainly: casein proteolysis assay with recombinant enzyme (A280). Format: biochemical.

T1 sequence (Q8I6Z5 whole entry): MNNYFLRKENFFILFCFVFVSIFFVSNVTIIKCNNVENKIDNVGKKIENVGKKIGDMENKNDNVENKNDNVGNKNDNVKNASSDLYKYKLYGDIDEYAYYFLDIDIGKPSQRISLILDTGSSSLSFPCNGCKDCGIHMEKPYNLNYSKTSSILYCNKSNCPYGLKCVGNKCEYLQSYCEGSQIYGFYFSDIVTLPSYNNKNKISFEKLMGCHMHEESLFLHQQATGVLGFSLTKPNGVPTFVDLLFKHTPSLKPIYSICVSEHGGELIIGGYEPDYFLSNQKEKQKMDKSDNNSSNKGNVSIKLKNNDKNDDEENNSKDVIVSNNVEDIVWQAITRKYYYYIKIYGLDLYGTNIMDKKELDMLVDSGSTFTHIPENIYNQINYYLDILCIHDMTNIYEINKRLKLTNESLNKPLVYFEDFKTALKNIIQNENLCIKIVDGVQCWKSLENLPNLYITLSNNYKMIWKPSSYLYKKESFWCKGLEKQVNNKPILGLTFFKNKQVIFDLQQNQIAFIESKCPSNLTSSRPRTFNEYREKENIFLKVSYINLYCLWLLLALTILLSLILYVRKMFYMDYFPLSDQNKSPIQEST

Turning to `O=c1c(O)c(-c2ccc(O)c(O)c2)oc2cc(O)cc(O)c12` [quercetin], the IC50 in assay [1] was determined as 53.1 µM. The same measure, in the same setting: the figure for `O=c1c(O)c(-c2ccc(O)cc2)oc2cc(O)cc(O)c12` [kaempferol] is 22.4 µM; for `CC(C)=CC[C@@H](O)C1=CC(=O)c2c(O)ccc(O)c2C1=O` [shikonin] it is 43.3 µM. Turning to `CC(C)CC(=O)N[C@H](C(=O)N[C@H](C(=O)N[C@@H](CC(C)C)[C@@H](O)CC(=O)N[C@@H](C)C(=O)N[C@@H](CC(C)C)[C@@H](O)CC(=O)O)C(C)C)C(C)C` [pepstatin] (Isovaleryl-VV[Sta]A[Sta]-OH), in assay [2], the 50% inhibitory concentration (IC50) came out at 62.6 µM.
